According to patent US20250188110A1, “SPECIFIC SMALL MOLECULE INHIBITORS THAT BLOCK KMT9 METHYLTRANSFERASE ACTIVITY AND FUNCTION” (ALBERT-LUDWIGS-UNIVERSITÄT FREIBURG, priority 2021, published 2025):

Key:
CAL-29 = experiment: Further cell proliferation assay, X-Celligence RTCA, CAL-29; assay type: cell-based
Description: (§1) Compound no. 1 (Name 287) was tested in further cell proliferation assays using different cancer cell lines. Cell proliferation was determined using X-Celligence RTCA system (Roche). For real-time recording of CAL-29, VM-CUB1, SW480, SKBR3, HT-1376, PC-3M, A549, UM-UC-3, DU145 and 22RV1, between 2500 and 20000 cells/well (depending on the cell type) were seeded in 16 well E-plates (Roche). Cells were seeded in presence of DMSO or Compound no. 1 (Name 287) 24 h before seeding in E-plates. Cell indices were automatically recorded every 15 minutes. Relative velocities represent the change of the cell index over time. The ECso values of compound no.

VM-CUB1 = experiment: Further cell proliferation assay, X-Celligence RTCA, VM-CUB1; assay type: cell-based; settings: Homo sapiens, VM-CUB-1
Description: as §1

SW480 = experiment: Further cell proliferation assay, X-Celligence RTCA, SW480; assay type: cell-based; settings: Homo sapiens
Description: as §1

SKBR3 = experiment: Further cell proliferation assay, X-Celligence RTCA, SKBR3; assay type: cell-based; settings: Homo sapiens, SK-BR-3
Description: as §1

HT-1376 = experiment: Further cell proliferation assay, X-Celligence RTCA, HT-1376; assay type: cell-based; settings: Homo sapiens
Description: as §1

PC-3M = experiment: Further cell proliferation assay, X-Celligence RTCA, PC-3M; assay type: cell-based; settings: Homo sapiens, castration resistant prostate cancer cells
Description: as §1

A549 = experiment: Further cell proliferation assay, X-Celligence RTCA, A549; assay type: cell-based; settings: Homo sapiens
Description: as §1

UM-UC-3 = experiment: Further cell proliferation assay, X-Celligence RTCA, UM-UC-3; assay type: cell-based; settings: Homo sapiens, UMUC3
Description: as §1

DU145 = experiment: Further cell proliferation assay, X-Celligence RTCA, DU145; assay type: cell-based; settings: Homo sapiens, DU-145; DU145, castration resistant prostate cancer cells
Description: as §1

22RV1 = experiment: Further cell proliferation assay, X-Celligence RTCA, 22RV1; assay type: cell-based; settings: Homo sapiens; 22RV1, castration resistant prostate cancer cells
Description: as §1

KMT9 [1] = biological target: T1, KMT9 (Homo sapiens, UniProt Q9Y5N5); experiment: Microscale thermophoresis (MST) KMT9 binding; settings: His-tag labelled KMT9 20 nM; read-out: MST (Kd)
T1 sequence (Q9Y5N5 1-214): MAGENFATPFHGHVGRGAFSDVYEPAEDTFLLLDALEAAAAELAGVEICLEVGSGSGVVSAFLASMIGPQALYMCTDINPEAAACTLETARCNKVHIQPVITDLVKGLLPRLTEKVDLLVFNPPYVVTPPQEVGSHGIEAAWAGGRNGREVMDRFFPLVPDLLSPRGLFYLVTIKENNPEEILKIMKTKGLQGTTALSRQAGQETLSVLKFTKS
T1 sequence (Q9UI30 1-120 isoform Q9UI30-2 partner): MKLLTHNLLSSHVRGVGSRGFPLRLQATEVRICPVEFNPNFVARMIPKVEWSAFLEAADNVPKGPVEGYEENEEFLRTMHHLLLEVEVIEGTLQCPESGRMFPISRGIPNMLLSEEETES
In short: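 Kd from microscale thermophoresis: compound series against 20 nM His-KMT9 labelled via RED-Tris-NTA, buffer 25 mM HEPES (pH 7.5)/100 mM NaCl/1 mM DTT/0.05% Tween, 40% MST power, 100% LED. Reported as classes: A ≤10 nM, B >10–100 nM, C >100–1000 nM, D >1000 nM.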

KMT9 [2] = biological target: T1, KMT9; experiment: KMT9 thermal shift assay (SyproOrange); assay type: binding; settings: 500 µM compound, 2 μM KMT9; read-out: Thermal shift (ΔTm)
In short: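 ΔTm versus DMSO-only control is reported in bins (>20 K, 15–20 K, 10–15 K, ≤10 K), using Tm from Boltzmann sigmoidal fits of SyproOrange melt curves. KMT9 with compound in pH 8.5 BTP buffer containing MgCl2 and DTT was preincubated at 25° C, then ramped 1° C per 15 s up to 95° C.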

KMT9 [3] = biological target: T1, KMT9; experiment: KMT9 methyltransferase inhibition assay, MTaseGlo luminescence (from entry 155); assay type: biochemical; settings: MTaseGlo procedure (entries from 155); 100 nM KMT9, 5 μM ETF1, 1 μM SAM; read-out: Inhibition (IC50)
In short: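 KMT9 (100 nM final) pre-incubated with inhibitor for 15 min at room temperature, then reacted with 5 μM ETF1 and 1 μM SAM for 2 h at 30° C. at 2% DMSO final. MTaseGlo luminescence read after 60 min detection; IC50 reported in four potency bins.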

Row | SMILES | Kd (KMT9 [1]) | ΔTm at 500 µM (KMT9 [2]) | IC50 (KMT9 [3]) | other results
1 | CNc1ncnc2c1ccn2[C@@H]1C[C@H](CNCCCNCCc2cccc(Oc3ccccc3)c2)[C@@H](O)[C@H]1O [Compound 287, (1R,2S,3R,5R)-3-(4-(methylamino)-7H-pyrrolo[2,3-d]pyrimidin-7-yl)-5-(((3-((3-phenoxyphenethyl)amino)propyl)amino)methyl) cyclopentane-1,2-diol] |  |  |  | EC50 (CAL-29): 6450 nM; EC50 (VM-CUB1): 6170 nM; EC50 (SW480): 9120 nM; EC50 (SKBR3): 6600 nM; EC50 (HT-1376): 12600 nM; EC50 (PC-3M): 15800 nM; EC50 (A549): 12000 nM; EC50 (UM-UC-3): 17000 nM; EC50 (DU145): 19000 nM; EC50 (22RV1): 16600 nM
2 | COc1cc(-c2cnsc2)cc([C@H]2C[C@@H](n3ccc4c(N)nc(Cl)nc43)[C@H](O)[C@@H]2O)c1 [Compound 667, (1R,2S,3R,5R)-3-(4-amino-2-chloro-7H-pyrrolo[2,3-d]pyrimidin-7-yl)-5-(3-(isothiazol-4-yl)-5-methoxyphenyl)cyclopentane-1,2-diol] | 10 to 100 nM | 10 to 15 °C | 1000 to 10000 nM | 
3 | Nc1nc(Cl)nc2c1ccn2[C@@H]1C[C@H](c2cccc(OC(F)(F)F)c2)[C@@H](O)[C@H]1O [Compound 668, (1R,2S,3R,5R)-3-(4-amino-2-chloro-7H-pyrrolo[2,3-d]pyrimidin-7-yl)-5-(3-(trifluoromethoxy)phenyl)cyclopentane-1,2-diol] | 100 to 1000 nM | ≤ 10 °C | 1000 to 10000 nM | 
4 | COc1cccc([C@H]2C[C@@H](n3cc(Br)c4c(N)nc(Cl)nc43)[C@H](O)[C@@H]2O)c1 [Compound 669, (1R,2S,3R,5R)-3-(4-amino-5-bromo-2-chloro-7H-pyrrolo[2,3-d]pyrimidin-7-yl)-5-(3-methoxyphenyl)cyclopentane-1,2-diol] | 10 to 100 nM | 10 to 15 °C | 1000 to 10000 nM | 
5 | COc1cccc([C@H]2C[C@@H](n3ccc4c(N)nc(Cl)nc43)[C@H](O)[C@@H]2O)c1 [Compound 670, (1R,2S,3R,5R)-3-{4-amino-2-chloropyrrolo[2,3-d]pyrimidin-7-yl}-5-(3-methoxyphenyl)cyclopentane-1,2-diol] | ≤ 10 nM | 10 to 15 °C | 100 to 1000 nM | 
6 | COc1cccc([C@H]2C[C@@H](n3cc(-c4ccn(C)n4)c4c(N)nc(Cl)nc43)[C@H](O)[C@@H]2O)c1 [Compound 671, (1R,2S,3R,5R)-3-(4-amino-2-chloro-5-(1-methyl-1H-pyrazol-3-yl)-7H-pyrrolo[2,3-d]pyrimidin-7-yl)-5-(3-methoxyphenyl)cyclopentane-1,2-diol] | 10 to 100 nM | 10 to 15 °C | 1000 to 10000 nM | 
7 | Nc1nc(Cl)nc2c1ccn2[C@@H]1C[C@H](c2cccc(CN3CCC3)c2)[C@@H](O)[C@H]1O [Compound 672, (1R,2S,3R,5R)-3-(4-amino-2-chloro-7H-pyrrolo[2,3-d]pyrimidin-7-yl)-5-(3-(azetidin-1-ylmethyl)phenyl)cyclopentane-1,2-diol] | 10 to 100 nM | 10 to 15 °C | 100 to 1000 nM | 
8 | Nc1nc(Cl)nc2c1c(Br)cn2[C@@H]1C[C@H](c2cccc(CN3CCC3)c2)[C@@H](O)[C@H]1O [Compound 673, (1R,2S,3R,5R)-3-(4-amino-5-bromo-2-chloro-7H-pyrrolo[2,3-d]pyrimidin-7-yl)-5-(3-(azetidin-1-ylmethyl)phenyl)cyclopentane-1,2-diol] | ≤ 10 nM | 15 to 20 °C | 100 to 1000 nM | 
9 | Cn1ccc(-c2cn([C@@H]3C[C@H](c4cccc(CN5CCC5)c4)[C@@H](O)[C@H]3O)c3nc(Cl)nc(N)c23)n1 [Compound 674, (1R,2S,3R,5R)-3-(4-amino-2-chloro-5-(1-methyl-1H-pyrazol-3-yl)-7H-pyrrolo[2,3-d]pyrimidin-7-yl)-5-(3-(azetidin-1-ylmethyl)phenyl)cyclopentane-1,2-diol] | ≤ 10 nM | 15 to 20 °C | 100 to 1000 nM | 

Second part, led by results:

Row | Kd (KMT9 [1]) | ΔTm at 500 µM (KMT9 [2]) | IC50 (KMT9 [3]) | SMILES | other results
10 | ≤ 10 nM | 15 to 20 °C | 100 to 1000 nM | Cn1cc(Cl)c(-c2cn([C@@H]3C[C@H](c4cccc(CN5CCC5)c4)[C@@H](O)[C@H]3O)c3nc(Cl)nc(N)c23)n1 [Compound 675, (1R,2S,3R,5R)-3-(4-amino-2-chloro-5-(4-chloro-1-methyl-1H-pyrazol-3-yl)-7H-pyrrolo[2,3-d]pyrimidin-7-yl)-5-(3-(azetidin-1-ylmethyl)phenyl)cyclopentane-1,2-diol] | 
11 | 10 to 100 nM | ≤ 10 °C | 1000 to 10000 nM | Nc1nc(Cl)nc2c1ccn2[C@@H]1C[C@H](c2cccc(OC(F)F)c2)[C@@H](O)[C@H]1O [Compound 676, (1R,2S,3R,5R)-3-{4-amino-2-chloropyrrolo[2,3-d]pyrimidin-7-yl}-5-[3-(difluoromethoxy)phenyl]cyclopentane-1,2-diol] | 
12 | 10 to 100 nM | 10 to 15 °C | 1000 to 10000 nM | COc1cc(OC)cc([C@H]2C[C@@H](n3cc(Br)c4c(N)nc(Cl)nc43)[C@H](O)[C@@H]2O)c1 [Compound 677, (1R,2S,3R,5R)-3-{4-amino-5-bromo-2-chloropyrrolo[2,3-d]pyrimidin-7-yl}-5-(3,5-dimethoxyphenyl)cyclopentane-1,2-diol] | 
13 | 100 to 1000 nM | 10 to 15 °C | 1000 to 10000 nM | COc1cc(OC)cc([C@H]2C[C@@H](n3cc(-c4ccn(C)n4)c4c(N)nc(Cl)nc43)[C@H](O)[C@@H]2O)c1 [Compound 678, (1R,2S,3R,5R)-3-[4-amino-2-chloro-5-(1-methylpyrazol-3-yl)pyrrolo[2,3-d]pyrimidin-7-yl]-5-(3,5-dimethoxyphenyl)cyclopentane-1,2-diol] | 
14 | 100 to 1000 nM | ≤ 10 °C | 1000 to 10000 nM | COc1cc(OC)cc([C@H]2C[C@@H](n3cc(-c4ccn(Cc5ccccc5)n4)c4c(N)nc(Cl)nc43)[C@H](O)[C@@H]2O)c1 [Compound 679, (1R,2S,3R,5R)-3-[4-amino-5-(1-benzylpyrazol-3-yl)-2-chloropyrrolo[2,3-d]pyrimidin-7-yl]-5-(3,5-dimethoxyphenyl)cyclopentane-1,2-diol] | 
15 | 10 to 100 nM | 10 to 15 °C | 100 to 1000 nM | COc1cc([C@H]2C[C@@H](n3cc(Br)c4c(N)nc(Cl)nc43)[C@H](O)[C@@H]2O)ccn1 [Compound 680, (1R,2S,3R,5R)-3-(4-amino-5-bromo-2-chloro-7H-pyrrolo[2,3-d]pyrimidin-7-yl)-5-(2-methoxypyridin-4-yl)cyclopentane-1,2-diol] | 
16 | 10 to 100 nM | 10 to 15 °C | 100 to 1000 nM | Nc1cc(-c2cnsc2)cc([C@H]2C[C@@H](n3ccc4c(N)nc(Cl)nc43)[C@H](O)[C@@H]2O)c1 [Compound 681, (1R,2S,3R,5R)-3-(4-Amino-2-chloro-7H-pyrrolo[2,3-d]pyrimidin-7-yl)-5-(3-amino-5-(isothiazol-4-yl)phenyl)cyclopentane-1,2-diol] | 
17 | 10 to 100 nM | 10 to 15 °C | 100 to 1000 nM | COc1ccc([C@H]2C[C@@H](n3ccc4c(N)nc(Cl)nc43)[C@H](O)[C@@H]2O)cc1 [Compound 682, (1R,2S,3R,5R)-3-{4-Amino-2-chloropyrrolo[2,3-d]pyrimidin-7-yl}-5-(4-methoxyphenyl)cyclopentane-1,2-diol] | 
